US11622990B2, “VAP polypeptide and use thereof in preparation of drug for targeted diagnosis and treatment of tumor” (FUDAN UNIVERSITY, priority 2016, dated 2023)
Ends that are not written are not given here.

How the values were obtained:
[1] = test system: intracranial U87 tumor; assay: Anti-glioblastoma efficacy test of intracranial glioma (survival); type: in vivo, nude mice
Procedure: After the nude mice was anesthetized and fixed with stereotaxic apparatus, intracranial U87 tumor bearing model was established on nude mice by implanted with U87 cells (5×10^5 cells dispersed in 5 μL of PBS buffer for each mouse) in the logarithmic growth phase into the right striatum (0.6 mm in front of […], 1.8 mm in the lateral direction, and 3 mm in depth). The status of naked mice was observed regularly. […] The total dose of DOX was 10 mg/Kg except 2.5 mg/Kg for low dose and 5 mg/kg for medium dose. The ^DVAP dose was the amount of ^DVAP contained in the high dose of ^DVAP-DOX. The survival time of mice were recorded (FIG. 24).

[2] = FIGS. 25A-25B
[3] = Serum stability of VAP peptides in mouse serum; type: in vitro ADME; settings: 50% mouse serum, 37° C., after 2 h incubation
Procedure: At 0 and 15 min, 0.5, 1, 2 and 4 h, 100 μL solution was taken out and 20 μL trichloroacetic acid (TCA) was added to precipitate protein of the serum, after standing for 20 min at 4° C., the solution was centrifuged at 12,000 rpm for 10 min. 20 μL supernatant was taken for HPLC analysis.

[4] = target: T1, GRP78 protein (Homo sapiens, UniProt P11021); assay: Binding activity of VAP to GRP78 by surface plasmon resonance (Biacore); settings: SPR, GRP78 coupled to CM5 chip
T1 sequence (P11021 19-654): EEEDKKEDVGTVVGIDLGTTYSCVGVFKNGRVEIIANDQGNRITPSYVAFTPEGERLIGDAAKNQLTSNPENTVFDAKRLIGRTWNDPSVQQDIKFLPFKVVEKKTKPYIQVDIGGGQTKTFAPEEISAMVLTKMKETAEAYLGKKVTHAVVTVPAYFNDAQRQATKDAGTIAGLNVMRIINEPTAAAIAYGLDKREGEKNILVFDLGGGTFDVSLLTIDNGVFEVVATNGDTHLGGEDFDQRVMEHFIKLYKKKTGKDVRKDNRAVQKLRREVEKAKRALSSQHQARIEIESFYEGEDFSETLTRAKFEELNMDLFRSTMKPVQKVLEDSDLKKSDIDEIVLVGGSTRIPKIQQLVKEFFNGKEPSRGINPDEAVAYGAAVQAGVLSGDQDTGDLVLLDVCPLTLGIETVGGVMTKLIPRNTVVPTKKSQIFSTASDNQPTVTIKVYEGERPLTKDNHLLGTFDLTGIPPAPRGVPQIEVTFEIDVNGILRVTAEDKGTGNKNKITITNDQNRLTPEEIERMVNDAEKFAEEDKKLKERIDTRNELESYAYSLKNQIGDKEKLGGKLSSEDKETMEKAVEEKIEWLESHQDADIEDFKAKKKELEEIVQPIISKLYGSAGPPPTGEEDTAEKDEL
Procedure: Pre-binding analysis was performed by the biacore system, and pH 5.0 was selected as the optimal pH for GRP78 binding to the CMS chip. […] The samples were injected from low to high concentration.

[5] = target: T1, GRP78 protein; assay: VAP mutual competition inhibition test on U87 cells (flow cytometry); type: cell-based; design: saturate the receptor protein on the cell surface; endogenous in cells; host or cells: U87 glioma cells; settings: 4° C., unlabeled peptide before fluorescein-labeled peptide
Procedure: U87 cells were digested by trypsin and transferred to EP tubes, washed with PBS three times to remove trypsin, pretreated at 4° C. for 20 min. The prepared peptide solution (non-fluorescent label) was also placed at 4° C. for low temperature pretreatment, then the peptide solution was mixed with the cells and shocked for 2 h to saturate the receptor protein on the cell surface. Then the fluorescein-labeled peptide solution was added.

Row | Compound | mean survival time ([1]; total dose of DOX 10 mg/Kg (high dose), tail vein, days 10, 13, 16, 19, 22) [days] | AUC0-6h [2] [ng·h/mL] | MRT0-6h [2] [h] | T1/2 [2] [h] | residual percentage of intact polypeptide (degradation) [3] | Kd value (dissociation) [4] [s⁻¹] | mean survival time ([1]; ^DVAP alone, amount contained in the high dose of ^DVAP-DOX) [days] | competitive inhibition between VAP peptides [5] | Kd [4] [µM]
1 | COc1cccc2c1C(=O)c1c(O)c3c(c(O)c1C2=O)C[C@@](O)(C(=O)CO)C[C@@H]3O[C@H]1C[C@H](N)[C@H](O)[C@H](C)O1 [DOX, doxorubicin] | 36 | 7976 ± 1515 | 1.836 ± 0.695 | 2.131 ± 0.646 | – | – | – | – | –
2 | CC(C)[C@@H](NC(=O)[C@@H](C)NC(=O)[C@H]1CCCN1)C(=O)N[C@H](CCCNC(=N)N)C(=O)N[C@@H](C(=O)N[C@H](CC(N)=O)C(=O)N[C@H](CO)C(=O)O)[C@H](C)O [^DVAP] | – | – | – | – | hardly degraded | 0.02091 | 45.5 | completely inhibit each other | –
3 | CC(C)[C@@H](NC(=O)[C@@H](CCCNC(=N)N)NC(=O)[C@H](NC(=O)[C@@H](CC(N)=O)NC(=O)[C@H](N)CO)[C@H](C)O)C(=O)N[C@H](C)C(=O)N1CCC[C@@H]1C(=O)O [^SVAP] | – | – | – | – | hardly degraded | 0.02826 | – | completely inhibit each other | 5.22
4 | SNTRVAP [^LVAP, reference compound] | – | – | – | – | completely degraded | 0.01898 | – | completely inhibit each other | –
